These results are taken from patent US20240245762A1, “METHODS AND PLATFORMS FOR PROMOTING ANTIGEN-SPECIFIC TOLERANCE IN THE TREATMENT OF TYPE 1 DIABETES AND GRAFT REJECTION AND COMPOSITIONS RELATING THERETO” (University of Maryland, College Park, priority 2021, published 2024).

This assay has as its system Eα presentation in MHC-II. Kind of assay: Immunohistochemistry of Eα presentation in MHC-II (Y-ae) around HEVs of LNs. Type of assay: in vivo, mouse. The note with it: three daily i.p. injections starting on the day of MP treatment. The text has this:
Immunohistochemistry and histology. The following antibodies were used for immunohistochemistry: ERTR7 (clone sc-73355), CD11c (cloneHL3), Laminin alpha4 (clone 775830), laminin alpha 5 (polyclonal), Foxp3 (clone NRRF-30), Vα2 TCR (clone B20.1). For immunohistochemistry, LNs and spleens were frozen with OCT compound (Scigen Tissue-Plus, Gardena, CA). Frozen sections were cut at 6 μm, fixed with cold acetone, blocked with 5% goat or donkey serum (Jackson ImmunoResearch, West Grove, PA) and incubated with the indicated antibodies and DAPI. […] Images were acquired with a Nikon Eclipse 700 (Nikon, Melville, NY, USA) and analyzed with Volocity image analysis software (Perkin Elmer, Waltham, MA). The positive staining area percentage was quantified based on at least three independent experiments with 3 sections per LN and 3-5 fields/section.
Subsequently, we directly investigated the trafficking and presentation of antigen from MPs in […] LNs using Y-ae, a recently-developed antibody tool. […] At 2 days, Eα presentation localized with HEVs was detected in treated LNs (FIG. 12f), and increased by day 6 (FIG. 12g). […]

Take `CCCCCCCCc1ccc(CCC(N)(CO)CO)cc1` [FTY720]: the “effect on Eα presentation after Eα MP or Eα/rapamycin MP treatment” value was “did not significantly affect Eα presentation”.
